Data taken from US12508248B2, “Therapeutic agent for prototheca disease” (priority 2019, dated 2025).
≈ marks a conversion by molar mass, not a printed value.

Tests used:
[1] = system: Candida parapsilosis ATCC 22019; test: MIC assay of the CLSI M27-A3 test, control strain; assay type: cell-based
Experimental: (§1) The isolates were maintained on Yeast Extract-Peptone-Dextrose agar (YPD: 1% yeast extract, 2% peptone, 2% dextrose, 2% agar) and tested for antifungal susceptibility. The susceptibility of the isolates to the antifungal agents itraconazole (ITZ, Merck KGA) and ravuconazole (RVZ, selenium pharma) was measured using a trace liquid dilution method (broth microdilution assay) according to the CLSI M27-A3 guideline. The minimum inhibitory concentration (MIC) was measured after culturing at 32 degrees for 72 hours. MIC was defined as the lowest concentration that induces significant inhibition of growth (inhibition of about 50% or more). As a control, Candida parapsilosis ATCC 22019 obtained from ATCC was used, and the MIC assay of the CLSI M27-A3 test was performed.

prototheca species = test: Overall comparison of anti-algae effect against prototheca species; assay type: cell-based
Experimental: as §1

Prototheca blaskeae = test: Broth microdilution MIC assay, CLSI M27-A3 guideline; assay type: cell-based; details: strain NUBS19005, bovine protothecal mastitis; 32 degrees, 72 hours
Experimental: (§2) For Prototheca wickerhamii, isolates (1 cat strain and 2 dog strains) were obtained from dogs and cats suffering from a prototheca disease. For Prototheca zopfii, bovine prototheca mastitis isolates (Genotype 2, 10 strains) and environmental isolates (Genotype 1, 10 strains) were obtained. For Prototheca blaskeae, a prototheca mastitis isolate (1 strain) was obtained. For Prototheca zopfii, the drug susceptibility was tested also on Genotype 1 established strain (SAG20063^T) and Genotype 2 established strain (SAG2021^T).
as §1

Prototheca wickerhamii = test: as above; assay type: cell-based; details: for MICs: 32 degrees, 72 hours
Experimental: as §2, §1

[2] = system: Prototheca zopfii Genotype 1; test: as above; assay type: cell-based; details: for MICs: 32 degrees, 72 hours
Experimental: as §2, §1

[3] = system: Prototheca zopfii Genotype 2; test: as above; assay type: cell-based; details: 32 degrees, 72 hours
Experimental: as §2, §1

[4] = system: several strains of Prototheca wickerhamii and Prototheca zopfii; details: previous study on susceptibility, Non-Patent Document 1; cited from earlier work
[5] = when administered to humans; cited from earlier work
[6] = strain NUBS19001, feline protothecosis
[7] = strain NUBS19002, canine protothecosis
[8] = strain NUBS19003, canine protothecosis
[9] = strain NUBS19004, environment (GT1)
[10] = strain SAG2063T, type strain of (GT1)
[11] = strain A7, bovine protothecal mastitis (GT2)
[12] = strain A8, bovine protothecal mastitis (GT2)
[13] = strain A9, bovine protothecal mastitis (GT2)
[14] = strain A10, bovine protothecal mastitis (GT2)
[15] = strain A11, bovine protothecal mastitis (GT2)
[16] = strain A13, bovine protothecal mastitis (GT2)
[17] = strain A14, bovine protothecal mastitis (GT2)
[18] = strain A15, bovine protothecal mastitis (GT2)
[19] = strain A16, bovine protothecal mastitis (GT2)
[20] = strain A17, bovine protothecal mastitis (GT2)
[21] = strain SAG2021T, type strain of GT2

Compound: ravuconazole [RVZ]
- MIC for the control strain Candida parapsilosis ATCC 22019 [1]: 0.03 µg/mL
- effectiveness (anti-algae effect) compared with itraconazole against pathogen of prototheca species (prototheca species; versus itraconazole): more effective
- activity compared with publicly known results of kanamycin, gentamicin, amphotericin B and itraconazole against prototheca species (prototheca species; versus publicly known results of KM, GM, AMB, ITZ): stronger activity
- MICs (Prototheca blaskeae): 0.03 mg/L
- MICs (Prototheca wickerhamii; [6]): 0.03 mg/L
- MICs (Prototheca wickerhamii; [7]): 0.03 mg/L
- MICs (Prototheca wickerhamii; [8]): 0.03 mg/L
- MIC of the three clinical isolates of Prototheca wickerhamii (Prototheca wickerhamii; summary over three clinical isolates): 0.03 µg/mL
- MICs ([2]; strain I1, environment (GT1)): 0.03 mg/L
- MICs ([2]; strain I3, environment (GT1)): 0.03 mg/L
- MICs [2, 9]: 0.03 mg/L
- MICs ([2]; strain S2, environment (GT1)): 0.03 mg/L
- MICs ([2]; strain S3, environment (GT1)): 0.03 mg/L
- MICs ([2]; strain S29, environment (GT1)): 0.03 mg/L
- MICs ([2]; strain S36, environment (GT1)): 0.03 mg/L
- MICs ([2]; strain S42, environment (GT1)): 0.03 mg/L
- MICs [2, 10]: 0.03 mg/L
- MICs ([2]; strain W3, environment (GT1)): 0.03 mg/L
- MICs ([2]; strain W20, environment (GT1)): 0.03 mg/L
- MIC of 11 isolates of Genotype 1 of Prototheca zopfii ([2]; summary over 11 isolates of Genotype 1): 0.03 µg/mL
- MICs [3, 11]: 0.125 mg/L
- MICs [3, 12]: 0.03 mg/L
- MICs [3, 13]: 0.03 mg/L
- MICs [3, 14]: 0.03 mg/L
- MICs [3, 15]: 0.25 mg/L
- MICs [3, 16]: 0.125 mg/L
- MICs [3, 17]: 0.03 mg/L
- MICs [3, 18]: 0.0625 mg/L
- MICs [3, 19]: 0.03 mg/L
- MICs [3, 20]: 0.25 mg/L
- MICs [3, 21]: 0.125 mg/L

Compound: C[C@@H]1[C@H](O)[C@@H](C)/C=C/C=C/C=C/C=C/C=C/C=C/C=C/[C@H](O[C@@H]2O[C@H](C)[C@@H](O)[C@H](N)[C@@H]2O)C[C@@H]2O[C@](O)(C[C@@H](O)C[C@@H](O)[C@H](O)CC[C@@H](O)C[C@@H](O)CC(=O)O[C@H]1C)C[C@H](O)[C@H]2C(=O)O [AMB, amphotericin B]
- effectiveness against several strains of Prototheca wickerhamii and Prototheca zopfii [4]: not effective

Compound: C[C@@H](c1nc(-c2ccc(C#N)cc2)cs1)[C@@](Cn1cncn1)(OCOP(=O)(O)O)c1ccc(F)cc1F [Fosravuconazole, fosravuconazole]
- conversion of prodrug to ravuconazole [5]: rapidly converted to ravuconazole

Compound: CCC(C)n1ncn(-c2ccc(N3CCN(c4ccc(OCC5COC(Cn6cncn6)(c6ccc(Cl)cc6Cl)O5)cc4)CC3)cc2)c1=O (stereo not shown) [ITZ, itraconazole]
- MIC ([1]; Lodderomyces parapsilosis, ATCC22019): 0.125 µg/mL (≈ 0.177 µM)
- MICs (Prototheca blaskeae): 32 mg/L
- MICs (Prototheca wickerhamii; [6]): >32 mg/L
- MICs (Prototheca wickerhamii; [7]): >32 mg/L
- MICs (Prototheca wickerhamii; [8]): 4 mg/L
- MICs ([2]; strain I1, environment (GT1)): 2 mg/L
- MICs ([2]; strain I3, environment (GT1)): 0.25 mg/L
- MICs [2, 9]: 1 mg/L
- MICs ([2]; strain S2, environment (GT1)): 32 mg/L
- MICs ([2]; strain S3, environment (GT1)): 8 mg/L
- MICs ([2]; strain S29, environment (GT1)): >32 mg/L
- MICs ([2]; strain S36, environment (GT1)): 16 mg/L
- MICs ([2]; strain S42, environment (GT1)): 8 mg/L
- MICs [2, 10]: 1.5 mg/L
- MICs ([2]; strain W3, environment (GT1)): 4 mg/L
- MICs ([2]; strain W20, environment (GT1)): 4 mg/L
- MICs [3, 11]: 32 mg/L
- MICs [3, 12]: 4 mg/L
- MICs [3, 13]: >32 mg/L
- MICs [3, 14]: >32 mg/L
- MICs [3, 15]: >32 mg/L
- MICs [3, 16]: >32 mg/L
- MICs [3, 17]: >32 mg/L
- MICs [3, 18]: >32 mg/L
- MICs [3, 19]: 8 mg/L
- MICs [3, 20]: 4 mg/L
- MICs [3, 21]: >32 mg/L

Compound: gentamicin
- effectiveness against several strains of Prototheca wickerhamii and Prototheca zopfii [4]: not effective
